Values of other authors as cited in patent US5648396A, “Methods for treating depression and other disorders using optically pure R (-) fluoxetine and monoamine oxidase inhibitor” (Sepracor Inc., priority 1995, dated 1997).
Entries after “also recorded” stand apart in the source; their conditions may differ.

Assays:
[1] = L-form versus D-enantiomer
[2] = suggested
[3] = tested on: morning sickness during pregnancy; settings: control of morning sickness during pregnancy; suggested
α2 receptor = settings: relative to effect on 5HT uptake
uptake of norepinephrine = settings: relative to effect on 5HT uptake
β receptor = settings: relative to effect on 5HT uptake
acetic acid writhing = settings: Robertson et al 1988
[4] = tested on: writhing (morphine potentiation); settings: Robertson et al 1988
HT2 receptor = settings: relative to effect on 5HT uptake
PCPA effect on 5HT = settings: for Duration of Inhibition of PCPA 5HT effect / Inhibition of PCPA effect on 5HT (full block): Fuller & Snoddy 1986; for Inhibition of PCPA effect on 5HT (ED50): Robertson et al 1988
α1A receptor = settings: relative to effect on 5HT uptake
Saccharine palatability = settings: Robertson et al 1988
5HT1A receptor = settings: relative to effect on 5HT uptake
D2 receptor = settings: relative to effect on 5HT uptake
5HT1 receptor = settings: relative to effect on 5HT uptake
D1 receptor = settings: relative to effect on 5HT uptake
5HIAA = settings: acute effect; Wong et al. 1985
[5] = tested on: dopamine turnover in striatum; settings: in vivo
patients [6] = settings: in vivo
[7] = racemic mixture
α1 adrenergic receptors = settings: than tricyclic antidepressants; brain tissue
histaminergic receptors = settings: than tricyclic antidepressants; brain tissue
patients [8] = tested on: patients
Feeding = settings: rel. potency R vs S, Wong et al 1988

SMILES | affinity for α2 receptor (α2 receptor) | affinity for the uptake of norepinephrine (uptake of norepinephrine) | affinity for β receptor (β receptor) | Inhibition of acetic acid writhing (ED50) (acetic acid writhing) [mg/kg] | Inhibition of writhing (morphine potentiation; ED50) [4] [mg/kg] | affinity for HT2 receptor (HT2 receptor) | Duration of Inhibition of PCPA 5HT effect (PCPA effect on 5HT) | Inhibition of PCPA effect on 5HT (ED50) (PCPA effect on 5HT) [mg/kg] | Inhibition of PCPA effect on 5HT (full block) (PCPA effect on 5HT) | affinity for α1A receptor (α1A receptor) | Inhibition of Saccharine palatability (ED50) (Saccharine palatability) [mg/kg] | affinity for 5HT1A receptor (5HT1A receptor) | affinity for D2 receptor (D2 receptor) | affinity for 5HT1 receptor (5HT1 receptor) | affinity for D1 receptor (D1 receptor) | also measured
CC(C)NC[C@H](O)COc1cccc2ccccc12 [L-form of propranolol] |  |  |  |  |  |  |  |  |  |  |  |  |  |  |  | potency relative to the D-enantiomer [1]: 100 times
O=C1CC[C@H](N2C(=O)c3ccccc3C2=O)C(=O)N1 [L-enantiomer of thalidomide] |  |  |  |  |  |  |  |  |  |  |  |  |  |  |  | teratogenicity [2]: potent teratogen
O=C1CC[C@@H](N2C(=O)c3ccccc3C2=O)C(=O)N1 [D-enantiomer of thalidomide] |  |  |  |  |  |  |  |  |  |  |  |  |  |  |  | sedative effect [3]: safe and effective sedative
CNCC[C@H](Oc1ccc(C(F)(F)F)cc1)c1ccccc1 [S-Fluoxetine] | relatively little affinity | relatively little affinity | relatively little affinity | 25.7 | 5.7 | relatively little affinity | > 24 h | 1.2 | ~ 5 mg/kg | relatively little affinity | 4.9 | relatively little affinity | relatively little affinity | relatively little affinity | relatively little affinity | 
CNCCC(Oc1ccc(C(F)(F)F)cc1)c1ccccc1 (racemic) [R,S-Fluoxetine] |  |  |  |  |  |  |  |  |  |  |  |  |  |  |  | levels of the intracellular serotonin metabolite 5HIAA (5HIAA): rapid reduction; dopamine turnover in striatum [5]: affects dopamine turnover in striatum; wait after discontinuing fluoxetine before starting treatment with an MAOI (patients [6]): 5-6 weeks; half-life and duration of action (in words) [7]: long half-life and long duration of action; binding to α1 adrenergic receptors (α1 adrenergic receptors): much less potently; binding to histaminergic receptors (histaminergic receptors): much less potently; drug discontinuation due to headaches, nervousness, anxiety and insomnia (patients [8]; of patients treated with the drug): 5%; adverse effects (in words) (patients [8]; patients): produces a state of inner restlessness (akathisia); also recorded: severe anxiety leading to intense violent suicidal thoughts and self mutilation; also recorded: manic behavior; also recorded: nausea, diarrhea, drowsiness, decrease in libido, and/or sexual dysfunction; anticholinergic and cardiovascular side effects (patients [8]; versus tricyclic antidepressants): less anticholinergic side effects such as blurred vision, dry mouth, constipation and urinary retention; also recorded: less lowering of blood pressure, tachycardia and arrhythmias
CNCC[C@@H](Oc1ccc(C(F)(F)F)cc1)c1ccccc1 [R-Fluoxetine, (-)N-methyl-3-phenyl-3-[(α,α,α-trifluoro-p-tolyl)-oxy]-propylamine] | relatively little affinity | relatively little affinity | relatively little affinity | 15.3 | 3.6 | relatively little affinity | ~ 8 hr | 2.1 | ~ 10 mg/kg | relatively little affinity | 6.1 | relatively little affinity | relatively little affinity | relatively little affinity | relatively little affinity | Inhibition of Feeding (meal fed, 2DG) (rel. potency) (Feeding): R < S
